This is an account of results in BindingDB's records for doi:10.1021/acs.jnatprod.6b01127 (Beijing University of Chinese Medicine, 2017).

Each structure is given as a SMILES string. Bounds are passed on as bounds.

Sequence of Signal transducer and activator of transcription 3 (P40763 whole entry): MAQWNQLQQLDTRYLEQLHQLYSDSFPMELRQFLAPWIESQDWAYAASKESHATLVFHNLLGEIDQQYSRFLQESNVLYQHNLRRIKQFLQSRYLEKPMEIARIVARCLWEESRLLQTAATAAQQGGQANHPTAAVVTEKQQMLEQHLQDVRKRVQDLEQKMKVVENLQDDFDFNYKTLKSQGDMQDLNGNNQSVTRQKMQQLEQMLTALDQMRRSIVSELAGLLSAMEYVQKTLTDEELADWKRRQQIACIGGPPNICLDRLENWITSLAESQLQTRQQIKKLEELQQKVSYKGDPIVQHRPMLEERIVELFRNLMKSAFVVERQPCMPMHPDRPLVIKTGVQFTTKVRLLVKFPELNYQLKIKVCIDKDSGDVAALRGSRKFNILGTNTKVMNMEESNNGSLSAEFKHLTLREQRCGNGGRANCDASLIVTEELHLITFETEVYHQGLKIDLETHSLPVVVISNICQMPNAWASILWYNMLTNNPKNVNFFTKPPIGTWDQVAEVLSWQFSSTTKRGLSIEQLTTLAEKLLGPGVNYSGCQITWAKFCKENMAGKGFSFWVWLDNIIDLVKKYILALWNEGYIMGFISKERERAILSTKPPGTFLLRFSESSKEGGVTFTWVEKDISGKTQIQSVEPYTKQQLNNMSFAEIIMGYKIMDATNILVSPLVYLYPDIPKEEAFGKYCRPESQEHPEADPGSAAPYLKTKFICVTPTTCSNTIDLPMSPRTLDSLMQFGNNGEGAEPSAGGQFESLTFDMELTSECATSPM

This experiment addresses Signal transducer and activator of transcription 3 (Homo sapiens, UniProt P40763). Nature of the experiment: Inhibition of IL-6-Induced STAT3 activation (unknown origin) expressed in human HepG2 cells expressing pSTAT3-luciferase pre-incubated for 1 hr before IL-6 stimulation for 6 hrs by luciferase reporter gene assay. A general note: In a reporter assay the amount or activity of a reporter protein is the signal.
For the molecule `O=c1c(-c2ccc(O)cc2)coc2cc(O)cc(O)c12` [Prunetol], half-maximal inhibition (IC50) was put at 24.8 µM.
Next, `COC(=O)C1=CO[C@@H](O[C@@H]2O[C@H](CO)[C@@H](O)[C@H](O)[C@H]2O)[C@@H]2[C@H](C)O[C@@H](O[C@H]3[C@H](O[C@@H]4OC=C(C(=O)OC)[C@H]5C[C@H](OC)O[C@@H](C)[C@@H]45)O[C@H](CO)[C@@H](O)[C@@H]3O)C[C@H]12`: more than 100 µM.
In turn, `COC(=O)C1=CO[C@@H](O[C@@H]2O[C@H](CO)[C@@H](O)[C@H](O)[C@H]2O)[C@@H]2[C@@H](C)[C@@H](O[C@H]3C[C@@H]4C(C(=O)OC)=CO[C@@H](O[C@@H]5O[C@H](CO)[C@@H](O)[C@H](O)[C@H]5O)[C@@H]4[C@@H](C)O3)C[C@H]12` came in with an IC50 of 71.9 µM.
In turn, `COC(=O)C1=CO[C@@H](O[C@@H]2O[C@H](CO[C@H]3C[C@@H]4C(C(=O)OC)=CO[C@@H](O[C@@H]5O[C@H](CO)[C@@H](O)[C@H](O)[C@H]5O)[C@@H]4[C@H](C)O3)[C@@H](O)[C@H](O)[C@H]2O)[C@@H]2[C@H](C)O[C@@H](OC)C[C@H]12` registered an IC50 of more than 100 µM.
`COC(=O)C1=CO[C@@H](O[C@@H]2O[C@H](CO)[C@@H](O)[C@H](O)[C@H]2O)[C@@H]2[C@H](C)O[C@H](OC)C[C@H]12`: inhibition was half-maximal at 32.5 µM (IC50).
`COC(=O)C1=CO[C@@H](O[C@@H]2O[C@H](CO)[C@@H](O)[C@H](O)[C@H]2O)[C@@H]2[C@H](C)O[C@@H](OC)C[C@H]12` returned a half-maximal inhibitory concentration (IC50) of 24.8 µM.
Turning to `COC(=O)C1=CO[C@@H](O[C@@H]2O[C@H](CO)[C@@H](O)[C@H](O)[C@H]2O)[C@@H]2[C@H](C)O[C@H](O)C[C@H]12` [(7Alpha-Hydroxy)-Morroniside], the half-inhibitory concentration (IC50) is 7 µM.
In the case of `CCO[C@@H]1C[C@@H]2C(C(=O)OC)=CO[C@@H](O[C@@H]3O[C@H](CO)[C@@H](O)[C@H](O)[C@H]3O)[C@@H]2[C@H](C)O1`, the IC50 is more than 100 µM.
In turn, `C=C[C@H]1[C@H](O[C@@H]2O[C@H](CO)[C@@H](O)[C@H](O)[C@H]2O)OC=C2C(=O)OCC[C@H]21` [CHEBI:80907] showed a 50% inhibitory concentration (IC50) of 89.5 µM.
Molecule `COC(=O)C1=CO[C@@H](O[C@@H]2O[C@H](CO)[C@@H](O)[C@H](O)[C@H]2O)[C@@H]2[C@H](C)[C@@H](O)C[C@H]12` [7-Epi-Loganin] had a 50% inhibitory concentration (IC50) of 22.9 µM.
The molecule `COC(=O)C1=CO[C@@H](O[C@@H]2O[C@H](CO)[C@@H](O)[C@H](O)[C@H]2O)[C@@H]2[C@@H](C)[C@@H](O)C[C@H]12` [Loganin] returned an IC50 of 14 µM.
`CCO[C@H]1C[C@@H]2C(C(=O)OC)=CO[C@@H](O[C@@H]3O[C@H](CO)[C@@H](O)[C@H](O)[C@H]3O)[C@@H]2[C@H](C)O1` registered an IC50 of 67 µM.
Take `COC(=O)C1=CO[C@@H](O[C@@H]2O[C@H](C)[C@@H](O)[C@H](O)[C@H]2O)[C@@H]2[C@H](C)O[C@@H](O[C@@H]3[C@@H](O)[C@H](O[C@@H]4OC=C(C(=O)OC)[C@H]5C[C@@H](OC)O[C@@H](C)[C@@H]45)O[C@H](CO)[C@H]3O)C[C@H]12`: the IC50 turned out to be 29.7 µM.
As for `COC(=O)C1=CO[C@@H](O[C@@H]2O[C@H](CO[C@@H]3C[C@@H]4C(C(=O)OC)=CO[C@@H](O[C@@H]5O[C@H](CO)[C@@H](O)[C@H](O)[C@H]5O)[C@@H]4[C@H](C)O3)[C@@H](O)[C@H](O)[C@H]2O)[C@@H]2[C@H](C)O[C@@H](OC)C[C@H]12`, the IC50 was determined as 43 µM.
Turning to `COC(=O)C1=CO[C@@H](O[C@@H]2O[C@H](C)[C@@H](O)[C@H](O)[C@H]2O)[C@@H]2[C@H](C)O[C@@H](O[C@@H]3[C@@H](O)[C@H](O[C@@H]4OC=C(C(=O)OC)[C@H]5C[C@H](OC)O[C@@H](C)[C@@H]45)O[C@H](CO)[C@H]3O)C[C@H]12`, the 50% inhibitory concentration (IC50) was determined as 11.9 µM.
For `COC(=O)C1=CO[C@@H](O[C@@H]2O[C@H](CO)[C@@H](O[C@H]3C[C@@H]4C(C(=O)OC)=CO[C@@H](O[C@@H]5O[C@H](C)[C@@H](O)[C@H](O)[C@H]5O)[C@@H]4[C@H](C)O3)[C@H](O)[C@H]2O)[C@@H]2[C@@H](C)[C@@H](O)C[C@H]12`, the half-maximal inhibitory concentration (IC50) turned out to be 52.6 µM.
The value for `CCO[C@H]1C[C@@H]2C(C(=O)OC)=CO[C@@H](O[C@@H]3O[C@H](CO[C@H]4C[C@@H]5C(C(=O)OC)=CO[C@@H](O[C@@H]6O[C@H](CO)[C@@H](O)[C@H](O)[C@H]6O)[C@@H]5[C@H](C)O4)[C@@H](O)[C@H](O)[C@H]3O)[C@@H]2[C@H](C)O1` was more than 100 µM; that for `COC(=O)C1=CO[C@@H](O[C@@H]2O[C@H](C)[C@@H](O)[C@H](O)[C@H]2O)[C@@H]2[C@H](C)O[C@@H](O[C@H]3[C@H](O)[C@@H](O)[C@H](O[C@@H]4OC=C(C(=O)OC)[C@H]5C[C@H](OC)O[C@@H](C)[C@@H]45)O[C@@H]3CO)C[C@H]12` was 79.1 µM; that for `COC(=O)C1=CO[C@@H](O[C@@H]2O[C@H](CO)[C@@H](O)[C@H](O)[C@H]2O)[C@@H]2[C@H](C)O[C@H](O[C@H]3[C@H](O[C@@H]4OC=C(C(=O)OC)[C@H]5C[C@@H](OC)O[C@@H](C)[C@@H]45)O[C@H](CO)[C@@H](O)[C@@H]3O)C[C@H]12` was 19.4 µM.
The value for `COC(=O)C1=CO[C@@H](O[C@@H]2O[C@H](CO[C@@H]3C[C@@H]4C(C(=O)OC)=CO[C@@H](O[C@@H]5O[C@H](CO)[C@@H](O)[C@H](O)[C@H]5O)[C@@H]4[C@H](C)O3)[C@@H](O)[C@H](O)[C@H]2O)[C@@H]2[C@@H](C)[C@@H](O)C[C@H]12` was 12.2 µM.
Turning to `COC(=O)C1=CO[C@@H](O[C@@H]2O[C@H](CO[C@@H]3C[C@@H]4C(C(=O)OC)=CO[C@@H](O[C@@H]5O[C@H](CO)[C@@H](O)[C@H](O)[C@H]5O)[C@@H]4[C@H](C)O3)[C@@H](O)[C@H](O)[C@H]2O)[C@@H]2[C@H](C)O[C@H](OC)C[C@H]12`, the half-inhibitory concentration (IC50) stood at 27.6 µM.
Molecule `COC(=O)C1=CO[C@@H](O[C@@H]2O[C@H](CO)[C@@H](O)[C@H](O)[C@H]2O)[C@@H]2[C@H](C)O[C@@H](OC[C@H]3O[C@@H](O[C@@H]4OC=C(C(=O)OC)[C@H]5C[C@@H](OC)O[C@@H](C)[C@@H]45)[C@H](O)[C@@H](O)[C@@H]3O)C[C@H]12` returned an IC50 of 47 µM.
`COC(=O)C1=CO[C@@H](O[C@@H]2O[C@H](CO)[C@@H](O)[C@H](O)[C@H]2O[C@@H]2C[C@@H]3C(C(=O)OC)=CO[C@@H](O[C@@H]4O[C@H](CO)[C@@H](O)[C@H](O)[C@H]4O)[C@@H]3[C@H](C)O2)[C@@H]2[C@@H](C)[C@@H](O)C[C@H]12` registered an IC50 of 40.5 µM.
As to `CCO[C@@H]1C[C@@H]2C(C(=O)OC)=CO[C@@H](O[C@@H]3O[C@H](CO[C@H]4C[C@@H]5C(C(=O)OC)=CO[C@@H](O[C@@H]6O[C@H](CO)[C@@H](O)[C@H](O)[C@H]6O)[C@@H]5[C@H](C)O4)[C@@H](O)[C@H](O)[C@H]3O)[C@@H]2[C@H](C)O1`, the IC50 was more than 100 µM.
The molecule `COC(=O)C1=CO[C@@H](O[C@@H]2O[C@H](CO)[C@@H](O)[C@H](O)[C@H]2O)[C@@H]2[C@H](C)O[C@@H](O)C[C@H]12` [CHEBI:80852] yielded an IC50 of 6.9 µM.
The value for `COC(=O)C1=CO[C@@H](O[C@@H]2O[C@H](CO)[C@@H](O)[C@H](O)[C@H]2O)[C@@H]2[C@H](C)O[C@H](O[C@H]3[C@H](O[C@@H]4OC=C(C(=O)OC)[C@H]5C[C@H](OC)O[C@@H](C)[C@@H]45)O[C@H](CO)[C@@H](O)[C@@H]3O)C[C@H]12` was 21.9 µM.

In general, IC50 refers to the midpoint of a concentration-inhibition curve. A high value points to weaker potency in that assay.
